Assay results taken from patent US9938274B1, “Naphthyridine compounds, medical combinations and use thereof” (Nanjing Natinefy Pharmatech Co., Ltd., priority 2016, dated 2018).

Key:
[1] = biological target: RET (Homo sapiens (Human), UniProt P07949); assay: HTRF KinEASE TK kinase inhibition assay, RET; assay type: biochemical
Experimental: A study on inhibition of protein kinases activity at in vitro biochemical level
Material and method: kinases such as c-Met, VEGFR-2, Axl and RET, obtained from Invitrogen; HTRF KinEASE; TK kit (Cisbio Company); 384-well plate (Greiner Company); ATP (Sigma Company), MgCl2 (Sigma Company); PHERAstar FS multifunctional plate reader (BMG Company); conventional centrifuge (StaiteXiangyi Company); incubator (Binder Company).
Preparation of working solution of the compounds: Before test, aliquots of the compounds are removed from the refrigerator, and diluted with pure DMSO to 50× of the level needed; and then the compounds are diluted with deionized water to 4× of the level needed;
Preparation of 1.33× enzymatic buffer: 5× enzymatic buffer (from HTRF kit) is diluted to 1.33× with deionized water, and appropriate components of the final level 1.33× are added: 1.33 mmol/L dithiothreitol (DTT) and 1.33 mmol/L MgCl2;
Preparation of kinase working solution: Met is diluted to 2× final level required, 0.2 ng/μL, with 1.33× enzymatic buffer; […]
Reading HTRF signal: PHERAstar FS is used to read the testing signal, and its setting is as following:
For the original data read from each well, ratio=665 nm/620 nm; […]

[2] = biological target: Axl kinase (Homo sapiens (Human), UniProt P30530); assay: HTRF KinEASE TK kinase inhibition assay, Axl; assay type: biochemical
Sequence of Axl kinase (P30530 26-894): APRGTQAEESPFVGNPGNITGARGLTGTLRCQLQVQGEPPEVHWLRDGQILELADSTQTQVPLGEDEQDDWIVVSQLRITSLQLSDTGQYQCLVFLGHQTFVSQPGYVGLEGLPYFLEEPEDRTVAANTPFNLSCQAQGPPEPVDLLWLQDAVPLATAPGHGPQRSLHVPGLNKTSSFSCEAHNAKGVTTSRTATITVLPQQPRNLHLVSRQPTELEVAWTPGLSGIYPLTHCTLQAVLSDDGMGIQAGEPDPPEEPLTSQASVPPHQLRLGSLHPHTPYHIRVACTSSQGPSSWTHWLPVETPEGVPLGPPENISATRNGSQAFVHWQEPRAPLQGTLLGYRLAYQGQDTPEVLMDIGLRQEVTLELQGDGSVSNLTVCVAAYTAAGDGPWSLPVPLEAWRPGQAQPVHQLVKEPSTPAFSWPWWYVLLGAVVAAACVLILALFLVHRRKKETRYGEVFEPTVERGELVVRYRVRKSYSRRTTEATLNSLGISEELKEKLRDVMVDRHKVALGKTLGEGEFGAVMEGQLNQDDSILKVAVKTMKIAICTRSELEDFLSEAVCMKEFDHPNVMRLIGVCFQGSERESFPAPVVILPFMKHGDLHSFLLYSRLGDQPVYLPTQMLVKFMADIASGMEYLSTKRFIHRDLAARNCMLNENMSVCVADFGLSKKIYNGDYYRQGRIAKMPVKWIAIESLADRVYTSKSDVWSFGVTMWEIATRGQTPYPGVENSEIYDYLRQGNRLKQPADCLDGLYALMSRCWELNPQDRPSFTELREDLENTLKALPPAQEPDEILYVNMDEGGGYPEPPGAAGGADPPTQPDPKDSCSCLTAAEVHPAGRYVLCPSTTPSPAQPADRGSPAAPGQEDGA

[3] = system: U87MG tumor; assay: Tumor xenograft model, U87MG, tumor growth inhibition; assay type: in vivo, nude mice (BALB/cA nu/nu); conditions: for Tumor growth inhibition rate, % TGI: day 22
[4] = In vivo pharmacokinetic study in rats
Experimental: An In Vivo Pharmacokinetic Study in Rats
For intravenous injection, rats are given a dose of 1 mg/kg. For oral administration, rats are given a dose of 5 mg/kg. […] The whole blood is centrifuged at 8000 rpm for 5 min to collect plasma, which is then transferred to 96-well pallet, and stored at −20° C. till LC-MS/MS testing.
Pharmacokinetic parameters among rats after medication are estimated using the non-compartment model of software WinNonlin.
The peak concentration, Cmax: the actual measurements are used;

Sequence of RET (P07949 29-1114): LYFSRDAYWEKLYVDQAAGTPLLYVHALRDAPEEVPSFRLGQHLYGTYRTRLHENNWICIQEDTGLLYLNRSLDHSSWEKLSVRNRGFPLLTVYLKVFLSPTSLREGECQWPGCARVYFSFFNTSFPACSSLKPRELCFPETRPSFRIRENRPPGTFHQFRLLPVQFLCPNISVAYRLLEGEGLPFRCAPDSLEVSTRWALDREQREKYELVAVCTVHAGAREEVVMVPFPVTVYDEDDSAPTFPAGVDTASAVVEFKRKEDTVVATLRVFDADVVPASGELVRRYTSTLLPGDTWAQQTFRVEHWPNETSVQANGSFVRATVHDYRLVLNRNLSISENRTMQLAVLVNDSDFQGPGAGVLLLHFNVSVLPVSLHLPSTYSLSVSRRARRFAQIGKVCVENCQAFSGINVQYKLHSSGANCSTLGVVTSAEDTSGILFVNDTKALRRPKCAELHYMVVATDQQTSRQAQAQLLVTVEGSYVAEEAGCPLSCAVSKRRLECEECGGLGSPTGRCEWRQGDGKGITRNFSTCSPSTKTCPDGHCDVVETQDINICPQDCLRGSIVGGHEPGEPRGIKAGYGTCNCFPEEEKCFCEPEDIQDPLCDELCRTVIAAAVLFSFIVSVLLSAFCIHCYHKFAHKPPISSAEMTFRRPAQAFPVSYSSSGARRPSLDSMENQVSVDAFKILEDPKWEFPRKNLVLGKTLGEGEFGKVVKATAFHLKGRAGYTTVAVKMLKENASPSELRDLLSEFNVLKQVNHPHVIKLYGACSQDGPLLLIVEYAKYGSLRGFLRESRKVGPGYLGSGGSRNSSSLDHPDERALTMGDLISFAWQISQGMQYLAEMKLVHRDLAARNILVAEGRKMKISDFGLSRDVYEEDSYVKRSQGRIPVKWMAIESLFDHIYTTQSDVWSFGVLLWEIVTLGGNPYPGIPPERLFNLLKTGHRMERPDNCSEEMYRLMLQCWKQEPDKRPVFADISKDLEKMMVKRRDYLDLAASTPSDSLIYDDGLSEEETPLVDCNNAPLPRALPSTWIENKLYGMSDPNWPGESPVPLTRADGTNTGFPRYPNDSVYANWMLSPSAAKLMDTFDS

## CC(C)(O)COc1ccc2c(Oc3ccc(Nc4nccc5[nH]cc(-c6ccc(F)cc6)c(=O)c45)cc3F)ccnc2c1 [Example 4, 5-((3-fluoro-4-((7-(2-hydroxy-2-methylpropoxy)quinolin-4-yl)oxy)phenyl)amino)-3-(4-fluorophenyl)-1,6-naphthyridin-4(1H)-one]
[1]
  IC50: 62 nM
[2]
  IC50: 15.7 nM
[3]; 3 mg/kg p.o. QD
  Tumor growth inhibition rate, % TGI: 87.0%
[3]; 10 mg/kg p.o. QD
  Tumor growth inhibition rate, % TGI: 105.9%
[3]; 6 animals per group
  Regression of tumor (tumor regression rate): is 100% (6/6)
[4]; 5 mg/kg i.g.
  CL: 2 mL/min/kg
  Vz: 1.46 L/kg
[4]; rat, plasma, iv, 1 mg/kg i.v.
  AUC(0-t): 11500 ng·h/mL
  Cmax: 10800 ng/mL
  clearance: 0.5 mL/min/kg
  half-life: 9.97 h
[4]; rat, plasma, iv, 1 mg/kg i.v., read-out: Vz
  Vd: 0.47 L/kg
[4]; rat, plasma, oral, 5 mg/kg i.g. vs 1 mg/kg i.v., read-out: F (absolute bioavailability)
  bioavailability: 71.8%
[4]; rat, plasma, po, 5 mg/kg i.g.
  AUC(0-t): 41300 ng·h/mL
  Cmax: 4310 ng/mL
  half-life: 8.37 h
